The supplement of paper PMC11061612

What was measured:
Assay in all cases: Bliss excess, mean over the matrix (fraction); higher = more synergy
[1] = tested on: TCCSUP (Bladder Carcinoma)
Summary of the method: (§1)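 After 24 hours at 37°C and 5% CO2 in 1536-well plates, cells in DMEM/F12 or RPMI plus 10% FBS received two-drug dose matrices for 72 hours. Viability came from CellTiter-Glo 2.0 luminescence and was scaled as inhibition, anchored at 0 by vehicle wells and at 1 by blank wells. Combination Emax is taken as the second-highest inhibition in the matrix, and Bliss excess as the observed combination effect less EA + EB − EA·EB, with EA and EB the single-agent effects.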

[2] = tested on: Daoy (Other Solid Carcinomas)
Summary of the method: as §1

[3] = tested on: UM-UC-3 (Bladder Carcinoma)
Summary of the method: as §1

[4] = tested on: TE-15 (Esophageal Squamous Cell Carcinoma)
Summary of the method: as §1

[5] = tested on: MDA-MB-361 (Breast Carcinoma)
Summary of the method: as §1

[6] = tested on: HO-1-N-1 (Oral Cavity Carcinoma)
Summary of the method: as §1

AGS (Gastric Carcinoma) = tested on: AGS (Gastric Carcinoma)
Summary of the method: as §1

[7] = tested on: HuP-T4 (Pancreatic Carcinoma)
Summary of the method: as §1

[8] = tested on: HT-1376 (Bladder Carcinoma)
Summary of the method: as §1

NB10 (Neuroblastoma) = tested on: NB10 (Neuroblastoma)
Summary of the method: as §1

[9] = tested on: CaR-1 (Colorectal Carcinoma)
Summary of the method: as §1

42-MG-BA (Glioblastoma) = tested on: 42-MG-BA (Glioblastoma)
Summary of the method: as §1

[10] = tested on: DEL (T-Cell Non-Hodgkin's Lymphoma)
Summary of the method: as §1

[11] = tested on: DoTc2-4510 (Cervical Carcinoma)
Summary of the method: as §1

[12] = tested on: TE-9 (Esophageal Squamous Cell Carcinoma)
Summary of the method: as §1

[13] = tested on: COLO-205 (Colorectal Carcinoma)
Summary of the method: as §1

[14] = tested on: Calu-3 (Lung Adenocarcinoma)
Summary of the method: as §1

NOS-1 (Osteosarcoma) = tested on: NOS-1 (Osteosarcoma)
Summary of the method: as §1

[15] = tested on: NCI-H2085 (Non-Small Cell Lung Carcinoma)
Summary of the method: as §1

[16] = tested on: KURAMOCHI (Ovarian Carcinoma)
Summary of the method: as §1

SMILES	Bliss excess [1]	Bliss excess [2]	Bliss excess [3]	Bliss excess [4]	Bliss excess [5]	Bliss excess [6]	Bliss excess (AGS (Gastric Carcinoma))	Bliss excess [7]	Bliss excess [8]	Bliss excess (NB10 (Neuroblastoma))	Bliss excess [9]	Bliss excess (42-MG-BA (Glioblastoma))	Bliss excess [10]	Bliss excess [11]	Bliss excess [12]	Bliss excess [13]	Bliss excess [14]	Bliss excess (NOS-1 (Osteosarcoma))	Bliss excess [15]	Bliss excess [16]
CCN(CCO)CCCOc1ccc2c(Nc3cc(CC(=O)Nc4cccc(F)c4)[nH]n3)ncnc2c1 [AZD2811] + O=C(c1cc(Cc2n[nH]c(=O)c3ccccc23)ccc1F)N1CCN(C(=O)C2CC2)CC1 [Olaparib] (first compound max 1 µM, 7x7, partner max 10 µM)	0.0238	0.0678	0.0332	-0.0125	-0.0133	-0.0329	0.0484	-0.0055	-0.0499	-0.0445	0.0213	0.009	0.0328	0.0035	-0.0111	0.0075	0.0047	0.0085	-0.0109	-0.0317
CN(CCO)CC[C@H](CSc1ccccc1)Nc1ccc(S(=O)(=O)NC(=O)c2ccc(N3CCC([C@@H](O)c4ccccc4-c4ccc(Cl)cc4)CC3)cc2)cc1S(=O)(=O)C(F)(F)F [AZD4320] + C1CN(CCC1(C(=O)N[C@@H](CCO)C2=CC=C(C=C2)Cl)N)C3=NC=NC4=C3C=CN4 [Capivasertib] (first compound max 1 µM, 7x7, partner max 3 µM)	-0.0568	0.0185	-0.0228	-0.042	-0.0442	-0.0187	-0.0081	-0.0353	-0.0959	-0.0288	-0.0668	-0.0479	-0.0028	0.0501	0.0169	-0.0031	-0.0149	-0.0386	-0.0401	-0.0393
CN(CCO)CC[C@H](CSc1ccccc1)Nc1ccc(S(=O)(=O)NC(=O)c2ccc(N3CCC([C@@H](O)c4ccccc4-c4ccc(Cl)cc4)CC3)cc2)cc1S(=O)(=O)C(F)(F)F [AZD4320] + C=CCn1c(=O)c2cnc(Nc3ccc(N4CCN(C)CC4)cc3)nc2n1-c1cccc(C(C)(C)O)n1 [AZD1775] (first compound max 1 µM, partner max 1 µM)	0.0373	-0.0261	-0.0064	-0.0137	-0.034	-0.0023	0.0191	-0.0368	-0.0588	0.0304	-0.0375	-0.027	0.0464	0.0205	0.0368	0.0243	0.014	0.0894	-0.0212	0.0419
CN(CCO)CC[C@H](CSc1ccccc1)Nc1ccc(S(=O)(=O)NC(=O)c2ccc(N3CCC([C@@H](O)c4ccccc4-c4ccc(Cl)cc4)CC3)cc2)cc1S(=O)(=O)C(F)(F)F [AZD4320] + CCN(CCO)CCCOc1ccc2c(Nc3cc(CC(=O)Nc4cccc(F)c4)[nH]n3)ncnc2c1 [AZD2811] (first compound max 1 µM, 7x7, partner max 1 µM)	-0.0194	0.0245	0.0325	-0.0393	0.122	-0.0255	0.192	-0.0427	0.026	-0.0097	-0.0753	0.15	-0.124	0.114	0.03	-0.0154	-0.0142	0.0616	-0.0145	0.0224
CN(CCO)CC[C@H](CSc1ccccc1)Nc1ccc(S(=O)(=O)NC(=O)c2ccc(N3CCC([C@@H](O)c4ccccc4-c4ccc(Cl)cc4)CC3)cc2)cc1S(=O)(=O)C(F)(F)F [AZD4320] + CN(C)CCCOc1ccc(-c2ccc3ncc4c(c3c2)n(C2CCOCC2)c(=O)n4C)cn1 [AZD0156] (first compound max 1 µM, 7x7, partner max 1 µM)	-0.0227	0.0118	-0.0219	-0.0455	-0.0589	-0.0011	-0.0561	-0.0268	-0.03	-0.0056	-0.0727	-0.0225	0.0265	-0.12	-0.0101	-0.054	-0.0153	0.0203	-0.0242	-0.0367
CN(CCO)CC[C@H](CSc1ccccc1)Nc1ccc(S(=O)(=O)NC(=O)c2ccc(N3CCC([C@@H](O)c4ccccc4-c4ccc(Cl)cc4)CC3)cc2)cc1S(=O)(=O)C(F)(F)F [AZD4320] + C[C@@H]1COCCN1C2=NC(=NC(=C2)C3(CC3)[S@](=N)(=O)C)C4=C5C=CNC5=NC=C4 [AZD6738] (first compound max 1 µM, 7x7, partner max 10 µM)	0.009	0.0178	0.0368	-0.041	-0.0402	0.026	-0.0162	0.0013	0.0078	-0.0515	0.0178	0.0154	0.0294	-0.0202	0.0198	-0.0575	-0.006	0.038	-0.0912	0.0158
CN(CCO)CC[C@H](CSc1ccccc1)Nc1ccc(S(=O)(=O)NC(=O)c2ccc(N3CCC([C@@H](O)c4ccccc4-c4ccc(Cl)cc4)CC3)cc2)cc1S(=O)(=O)C(F)(F)F [AZD4320] + C[C@@H](Nc1cc(F)cc(F)c1)c1cc(C(=O)N(C)C)cc2c(=O)cc(N3CCOCC3)oc12 [AZD8186] (first compound max 1 µM, 7x7, partner max 3 µM)	-0.0348	-0.0261	0.0327	-0.0335	0.0094	0.0421	0.018	0.0664	-0.0224	-0.0357	-0.0193	0.0453	0.0784	0.0252	0.0165	-0.0302	0.002	-0.0096	-0.0231	0.0147
CN(CCO)CC[C@H](CSc1ccccc1)Nc1ccc(S(=O)(=O)NC(=O)c2ccc(N3CCC([C@@H](O)c4ccccc4-c4ccc(Cl)cc4)CC3)cc2)cc1S(=O)(=O)C(F)(F)F [AZD4320] + Cc1cc2ncnn2cc1Nc1ncc2c(n1)n(C1CCOCC1)c(=O)n2C [AZD7648] (first compound max 1 µM, 7x7, partner max 10 µM)	-0.0325	-0.042	-0.0234	-0.046	0.0056	-0.0407	-0.0298	-0.0439	-0.17	-0.0281	-0.04	-0.0244	-0.0346	-0.0144	-0.016	-0.0132	-0.0547	0.0375	-0.0399	-0.0239
CN(CCO)CC[C@H](CSc1ccccc1)Nc1ccc(S(=O)(=O)NC(=O)c2ccc(N3CCC([C@@H](O)c4ccccc4-c4ccc(Cl)cc4)CC3)cc2)cc1S(=O)(=O)C(F)(F)F [AZD4320] + Cn1cnc2c(F)c(Nc3ccc(Br)cc3Cl)c(C(=O)NOCCO)cc21 [Selumetinib] (first compound max 1 µM, 7x7, partner max 3 µM)	0.0157	0.129	-0.0058	-0.0391	0.0835	-0.0533	0.181	0.0393	0.0297	0	-0.0573	0.0167	0.103	-0.021	0.0456	0.026	-0.0028	0.0796	0.032	0.0636
COc1nnc2ccc(N3CCC(c4ccc(OCCN5CCN(C)C(=O)[C@H]5C)cc4)CC3)nn12 [AZD5153] + C=CCn1c(=O)c2cnc(Nc3ccc(N4CCN(C)CC4)cc3)nc2n1-c1cccc(C(C)(C)O)n1 [AZD1775] (first compound max 1 µM, partner max 1 µM)	-0.0497	-0.0196	-0.0413	-0.001	-0.136	-0.0551	-0.0294	-0.0435	0.0053	-0.0727	-0.0267	-0.0577	-0.0679	-0.018	-0.0028	-0.0529	-0.0678	-0.0371	-0.0223	-0.0373
COc1nnc2ccc(N3CCC(c4ccc(OCCN5CCN(C)C(=O)[C@H]5C)cc4)CC3)nn12 [AZD5153] + CC1(C)CCC(CN2CCN(c3ccc(C(=O)NS(=O)(=O)c4ccc(NCC5CCOCC5)c([N+](=O)[O-])c4)c(Oc4cnc5[nH]ccc5c4)c3)CC2)=C(c2ccc(Cl)cc2)C1 [Venetoclax] (first compound max 1 µM, 7x7, partner max 1 µM)	-0.0768	-0.0568	-0.043	-0.0698	-0.0257	-0.095	-0.0619	-0.0457	-0.0305	-0.0566	-0.0643	-0.0391	-0.0559	-0.0405	-0.0599	-0.0745	-0.0258	-0.0078	-0.0655	-0.0471
COc1nnc2ccc(N3CCC(c4ccc(OCCN5CCN(C)C(=O)[C@H]5C)cc4)CC3)nn12 [AZD5153] + CCN(CCO)CCCOc1ccc2c(Nc3cc(CC(=O)Nc4cccc(F)c4)[nH]n3)ncnc2c1 [AZD2811] (first compound max 1 µM, 7x7, partner max 1 µM)	-0.0398	-0.0369	0.0346	-0.0535	-0.0448	-0.0014	0.0294	-0.0595	-0.0381	-0.0289	-0.0663	-0.0476	-0.0462	-0.0067	-0.0096	-0.0595	-0.0303	-0.0391	-0.0594	-0.0149
COc1nnc2ccc(N3CCC(c4ccc(OCCN5CCN(C)C(=O)[C@H]5C)cc4)CC3)nn12 [AZD5153] + C[C@@H]1COCCN1C2=NC(=NC(=C2)C3(CC3)[S@](=N)(=O)C)C4=C5C=CNC5=NC=C4 [AZD6738] (first compound max 1 µM, 7x7, partner max 10 µM)	-0.0327	-0.0356	0.0647	-0.0096	-0.0172	0.01	0.0381	-0.028	-0.0006	0.0214	0.0411	-0.0155	0.0007	0.0412	0.0039	-0.0115	0.0066	0.0006	0.0107	0.0157
